# Data as given in article PMC7694328, “Synthesis and Glycosidase Inhibition Properties of Calix[8]arene-Based Iminosugar Click Clusters” (Pharmaceuticals, 2020).
# Several values for one entry are separate records, joined by “and”; a condition that tells them apart may be missing. Equal values may be shown once. Read-outs that look alike come from different tables or passages of the source.
# Tests used:
# [1] = biological target: T1, Jack Bean α-mannosidase (JBα-man) (Canavalia ensiformis, UniProt C0HJB3); conditions: cited from earlier work; for rp/n: cyclopeptoid-based clusters
# T1 construct: two LH heterodimers, each constituted by two distinct chains, L and H; purchased Sigma Aldrich
# T1 sequence (C0HJB3 1-562 limits assumed): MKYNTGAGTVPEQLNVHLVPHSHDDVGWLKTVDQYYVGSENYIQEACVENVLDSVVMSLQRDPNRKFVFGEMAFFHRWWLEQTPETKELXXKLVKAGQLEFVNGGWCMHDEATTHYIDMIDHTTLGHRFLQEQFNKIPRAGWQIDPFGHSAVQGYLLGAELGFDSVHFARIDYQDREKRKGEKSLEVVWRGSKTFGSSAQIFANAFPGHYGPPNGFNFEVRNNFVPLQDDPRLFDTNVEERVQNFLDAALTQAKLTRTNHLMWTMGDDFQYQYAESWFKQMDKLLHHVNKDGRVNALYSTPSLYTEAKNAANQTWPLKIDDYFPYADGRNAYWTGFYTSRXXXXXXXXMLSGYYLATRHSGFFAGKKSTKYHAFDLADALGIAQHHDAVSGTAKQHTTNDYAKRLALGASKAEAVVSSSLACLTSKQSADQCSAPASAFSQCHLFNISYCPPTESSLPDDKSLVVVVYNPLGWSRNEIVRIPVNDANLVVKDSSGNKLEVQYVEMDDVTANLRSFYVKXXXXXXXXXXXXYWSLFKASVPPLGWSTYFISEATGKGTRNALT
# T1 sequence (C0HJB3 563-981 limits assumed): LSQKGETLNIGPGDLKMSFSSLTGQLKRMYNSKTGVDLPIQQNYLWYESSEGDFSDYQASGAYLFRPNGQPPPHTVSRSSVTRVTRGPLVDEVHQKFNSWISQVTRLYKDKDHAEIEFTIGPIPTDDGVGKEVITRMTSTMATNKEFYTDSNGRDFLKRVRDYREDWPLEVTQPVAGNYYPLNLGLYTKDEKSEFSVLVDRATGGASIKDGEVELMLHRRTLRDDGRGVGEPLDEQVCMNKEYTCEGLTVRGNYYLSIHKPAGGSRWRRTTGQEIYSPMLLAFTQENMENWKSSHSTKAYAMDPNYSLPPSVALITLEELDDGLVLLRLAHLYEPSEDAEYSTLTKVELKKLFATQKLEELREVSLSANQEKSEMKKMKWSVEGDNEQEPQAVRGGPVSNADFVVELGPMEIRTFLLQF
# [2] = biological target: T1, Jack Bean α-mannosidase (JBα-man); test: Inhibition assay against Jack Bean α-mannosidase (hydrolysis of p-nitrophenyl-α-D-mannopyranoside); format: biochemical
# Procedure: p-nitrophenyl-α-D-mannopyranoside and α-mannosidase (EC 3.2.1.24, from Jack Bean, Km = 2.0 mM pH 5.5) were purchased from Sigma Aldrich(St. Louis, MO, USA).
# General procedure for Inhibition assay with basic quench: Inhibitory potencies were determined spectrophotometrically (Versamax 96-well plate spectrophotometer, Molecular Devices Corporation, Sunnyvale, CA, USA) measuring the residual hydrolytic activities of the mannosidase against p-nitrophenyl-α-D-mannopyranoside in the presence and absence of the inhibitor. All kinetics were performed at 25 °C and started by enzyme addition (0.015 U/mL) in a 100 µL assay medium (acetate buffer, 0.2 M, pH = 5) containing substrate (varying concentration from Km/8 to 2Km value) in presence or absence of various concentrations of inhibitor. After 40–50 min incubation, the reaction was quenched by addition of 1M Na2CO3 (100 µL). The absorbance of the resulting solution was determined at 405 nm. Ki values were determined in duplicate or triplicate, using the Dixon and Lineweaver–Burk graphical methods with Microsoft Excel 97-03, or using non-linear regression with GraphPad Prism 7 Software. As the inhibitors are only partially soluble in water, they were dissolved in DMSO for concentrated mother solutions and DMSO/buffer for diluted solutions with a final DMSO concentration under 4% in all wells. Previously, the stability of the enzymes in presence of various concentrations of DMSO was controlled and the enzyme activity was unaffected.
# General procedure for inhibition assay measured continuously: The release of p-nitrophenol was measured continuously at 385 nm to determine initial velocities. […] Under these conditions, the p-nitrophenolate released led to optical densities linear with both reaction time and concentration of the enzyme. Ki values were determined in duplicate or quadruplate, using the Dixon graphical method. As the inhibitors are only partially soluble in water, they were dissolved in DMSO for concentrated mother solutions and DMSO/buffer for diluted solutions with a final DMSO concentration under 5% in all vials. […]
# [3] = calix[4]arene cluster and its monovalent reference, read-out: Ki
structure (smiles),measurement,setting,value
CCCc1cn(CCCCCCCCCN2C[C@H](O)[C@@H](O)[C@H](O)[C@H]2CO)nn1 [Compound 4],Ki,"[1]; monovalent reference, C9 chain, read-out: Ki",188 µM
O=C1CN(Cc2cn(CCCCCCCCCN3C[C@H](O)[C@@H](O)[C@H](O)[C@H]3CO)nn2)C(=O)CN(Cc2cn(CCCCCCCCCN3C[C@H](O)[C@@H](O)[C@H](O)[C@H]3CO)nn2)C(=O)CN(Cc2cn(CCCCCCCCCN3C[C@H](O)[C@@H](O)[C@H](O)[C@H]3CO)nn2)C(=O)CN(Cc2cn(CCCCCCCCCN3C[C@H](O)[C@@H](O)[C@H](O)[C@H]3CO)nn2)C(=O)CN(Cc2cn(CCCCCCCCCN3C[C@H](O)[C@@H](O)[C@H](O)[C@H]3CO)nn2)C(=O)CN(Cc2cn(CCCCCCCCCN3C[C@H](O)[C@@H](O)[C@H](O)[C@H]3CO)nn2)C(=O)CN(Cc2cn(CCCCCCCCCN3C[C@H](O)[C@@H](O)[C@H](O)[C@H]3CO)nn2)C(=O)CN1Cc1cn(CCCCCCCCCN2C[C@H](O)[C@@H](O)[C@H](O)[C@H]2CO)nn1 [Compound 1b],rp/n,[1],3 and ~ 3
CCCc1cn(CCCCCCN2C[C@H](O)[C@@H](O)[C@H](O)[C@H]2CO)nn1 [Compound 3],Ki,"[1]; monovalent reference, C6 chain, read-out: Ki",322 µM
CC(C)(C)c1cc2c(OCc3cn(CCCN4C[C@H](O)[C@@H](O)[C@H](O)[C@H]4CO)nn3)c(c1)Cc1cc(C(C)(C)C)cc(c1OCc1cn(CCCN3C[C@H](O)[C@@H](O)[C@H](O)[C@H]3CO)nn1)Cc1cc(C(C)(C)C)cc(c1OCc1cn(CCCN3C[C@H](O)[C@@H](O)[C@H](O)[C@H]3CO)nn1)Cc1cc(C(C)(C)C)cc(c1OCc1cn(CCCN3C[C@H](O)[C@@H](O)[C@H](O)[C@H]3CO)nn1)C2 [Compound 2],Ki,[1]; [3],1.5 µM
same,rp/n (affinity enhancement per iminosugar),[1]; calix[4]arene cluster,70 and ~ 70
O=C1CN(Cc2cn(CCCCCCCCCN3C[C@H](O)[C@@H](O)[C@H](O)[C@H]3CO)nn2)C(=O)CN(Cc2cn(CCCCCCCCCN3C[C@H](O)[C@@H](O)[C@H](O)[C@H]3CO)nn2)C(=O)CN(Cc2cn(CCCCCCCCCN3C[C@H](O)[C@@H](O)[C@H](O)[C@H]3CO)nn2)C(=O)CN(Cc2cn(CCCCCCCCCN3C[C@H](O)[C@@H](O)[C@H](O)[C@H]3CO)nn2)C(=O)CN(Cc2cn(CCCCCCCCCN3C[C@H](O)[C@@H](O)[C@H](O)[C@H]3CO)nn2)C(=O)CN1Cc1cn(CCCCCCCCCN2C[C@H](O)[C@@H](O)[C@H](O)[C@H]2CO)nn1 [Compound 1a],rp/n,[1],3 and ~ 3
CC(C)(C)c1cc2c3c(c1)Cc1cc(C(C)(C)C)cc(c1OCc1cn(CCCCCCN4C[C@H](O)[C@@H](O)[C@H](O)[C@H]4CO)nn1)Cc1cc(C(C)(C)C)cc(c1OCc1cn(CCCCCCN4C[C@H](O)[C@@H](O)[C@H](O)[C@H]4CO)nn1)Cc1cc(C(C)(C)C)cc(c1OCc1cn(CCCCCCN4C[C@H](O)[C@@H](O)[C@H](O)[C@H]4CO)nn1)Cc1cc(C(C)(C)C)cc(c1OCc1ccc(cc1)CO3)Cc1cc(C(C)(C)C)cc(c1OCc1cn(CCCCCCN3C[C@H](O)[C@@H](O)[C@H](O)[C@H]3CO)nn1)Cc1cc(C(C)(C)C)cc(c1OCc1cn(CCCCCCN3C[C@H](O)[C@@H](O)[C@H](O)[C@H]3CO)nn1)Cc1cc(C(C)(C)C)cc(c1OCc1cn(CCCCCCN3C[C@H](O)[C@@H](O)[C@H](O)[C@H]3CO)nn1)C2 [Compound 7a],inhibition mode,[2],competitive inhibitors
same,Ki,"[2]; means ± SD, triplicate",7.7 ± 0.7 µM
same,rp/n (relative inhibition potency per DNJ unit),[2]; rp/number of DNJ units,7
OCc1cn(CCCN2C[C@H](O)[C@@H](O)[C@H](O)[C@H]2CO)nn1 [Compound 5],Ki,[1]; [3],400 µM
OC[C@@H]1[C@@H](O)[C@H](O)[C@H](O)c2nccn21 [mannoimidazole],Ki,"[1]; monovalent inhitope, read-out: Ki (monovalent)",0.11 µM
